Laboratory results reported in US11930819B2, “Antimicrobial compositions with enhanced efficacy” (ECOLAB USA INC., priority 2017, dated 2024).
“Also recorded” adds a separate entry of the source.

Key:
Type in all cases: cell-based
[1] = tested on: Serratia marcescens ATCC 14756; assay: Time Kill Efficacy, chelant comparison; settings: chelant added to cationic active-containing base formula
Description: Testing was performed to assess performance of differing chelants. Multiple amino acid based chelants were tested in exemplary compositions of the invention and tested against a control formulation containing no chelant.
Formula 5A served as the control having no chelant. Formulas 5B and 5C included GLDA and MGDA, respectively, for comparative testing against each other and the control. The compositions were inoculated with Serratia marcescens ATCC 14756 for 30 seconds at room temperature. Before adding the antimicrobial compositions, the inoculum numbers were measured (CFO/mL). The average count was […] providing a log average of 8.06. The inoculated surface was contacted with the various formulations for 30 seconds and the log reduction was measured.

[2] = tested on: Serratia marcescens ATCC 14756; assay: in vitro Time Kill testing (ASTM E 2315), Serratia marcescens; settings: 1.2% cationic surfactant with 0.6% benzalkonium chloride, Table 6
Description: (§1) In Examples 1-4, the survival of challenged organisms exposed to an antimicrobial test composition was measured using in vitro Time Kill testing, based on ASTM E 2315 Standard Guide for Assessment of Antimicrobial Activity Using a Time Kill Procedure. Utilizing this method, the inoculum is prepared by growing a microbial culture using a D/E agar medium. The microbial population then is washed from the agar with sterile physiological saline and the population of the microbial suspension is adjusted to around 10^8 colony forming units (cfu) per ml. An aliquot of the test formula, or a dilution thereof, is brought into contact with this known population of bacteria at ambient temperature. The test composition is neutralized after a set amount of time, which arrests the antimicrobial activity of the test sample. The log reduction from the original bacteria population is calculated using the following formula: log10 reduction=log10(control)−log10(test sample survivors) Each test was performed in duplicate and the average log reduction reported.
Once it was determined that cationic surfactants with chain lengths having 18 or less carbons provided enhanced microbiological efficacy, three such cationic surfactants were evaluated against Serratia marcescens, a Gram negative microorganism. […]

[3] = tested on: Escherichia coli ATCC 11229; assay: in vitro Time Kill testing (ASTM E 2315), cationic-compatible surfactants, Table 4; settings: 1% surfactant in 0.2% benzalkonium chloride formula
Description: as §1, with “reported. The efficacy of formulations with differing cationic-compatible surfactants with the same alkyl chain length is outlined in Tables 3 and 4. In each instance, citric acid and/or potassium hydroxide were used to maintain a pH of 6, and water was added quantum satis. […]” for “reported.”

Compound	effect of chelant on antimicrobial efficacy of base formula [1]	degree of microbiological efficacy [2]	impact on microbiological efficacy [3]
O=C(O)CC[C@@H](C(=O)O)N(CC(=O)O)CC(=O)O [GLDA, Glutamic acid diacetic acid]	did not show any enhancement of antimicrobial efficacy		
CCCCCCCCCCCC[N+](C)(C)C.[Cl-] [Laurtrimonium chloride, Lauryl Trimethyl Ammonium Chloride]		highest degree of efficacy	
CC(C(=O)O)N(CC(=O)O)CC(=O)O (stereo not drawn) [MGDA, Methylglycinediacetic acid]	significantly enhance the biocidal activity; also recorded: much higher log reduction		
CCCCCCCCCCCCCCCC(=O)NCCC[N+](C)(C)C.[Cl-] [Palmitamidopropyl trimonium chloride, Palmitamidopropyl Trimonium Chloride]		lowest degree of microbiological efficacy	
Cocamidopropyl Betaine			significant negative impact on microbiological efficacy
Coco Glucoside			negative impact on microbiological efficacy
